These results are taken from patent US7605135B2 (priority 2003, dated 2009).

As usually defined, the CC50 is the concentration that lowers cell viability or growth by half. A lower CC50 goes with harm at low concentration.

Read-outs that look alike come from different tables or passages of the source.

The test system of series [1] is fRhK4 cell line.
The conditions of series [2]: in vivo, cited from earlier work.
For series [3] the following is noted: human, in vivo; cited from earlier work.
The subject of series [4] is HIV-1. As to conditions: cited from earlier work.
Series [5] has as its system SARS-CoV. To be noted: fRhK4 cell line; for EC50 (μg/ml) at 48 hrs / EC50 (μg/ml) at 72 hrs: 10 strains of SARS-CoV, inhibition of cytopathic effect to 50% of control.

Turning to baicalin, the half-maximal cytotoxic concentration (CC50) in series [1] is more than 100 µg/mL. The “Serum level (after oral administration) Cmax” value in series [2] (human, po) is listed as “Cmax = 60 ng/mL (189.8 mg/person, in human). The amount (i.e., 189.8 mg/”. In series [2] (human), the “Half life (in humans)” value is on record as ~3 hrs in humans Muto R et al., “The chemical structure of new substance. Also, the “Serum concentration after oral dose” value in series [2] (po) is 470 ng/mL. Moreover, in series [3], the “Serum level (after intravenous administration) Cmax” value is reported as 74. The Antiviral effect result in series [4] was “Inhibition of HIV-1 [Kitamura K et al., “Baicalin: an inhibitor of HIV-1”. In series [5], the “EC50 (μg/ml) at 48 hrs” value lay within 12.5 to 25 µg/mL and the “EC50 (μg/ml) at 72 hrs” value lay in the range of 25 to 50 µg/mL. For the same substance, in series [5] (listed as baicalin), the “EC50 (μg/ml) at 48 hrs” value was 12.5 to 25 µg/mL and the “EC50 (μg/ml) at 72 hrs” value lay in the range of 25 to 50 µg/mL. The “SI = CC50/EC50 at 48 hrs” value in series [5] (selectivity index) is listed as more than 8.
